Patent US9073858B2, “Methods of targeted drug development” (priority 2010, dated 2015)
Entries after “also recorded” stand apart in the source; their conditions may differ. Read-outs that look alike come from different tables or passages of the source.

Legend:
H1975 cells = experiment: H1975 Cell Proliferation Assay (MTT); assay type: cell-based; conditions: read-out: IC50 Value (μM) H1975 Cells
Method: (§1) Cell proliferation is determined using the MTT assay. The MTT cell proliferation assay is a colorimetric assay system which measures the reduction of a tetrazolium component (MTT) into an insoluble formazan product by the mitochondria of viable cells. After incubation of the cells with the MTT reagent, DMSO is added to solubilize the colored crystals and the samples read at a wavelength of 560 nm. The amount of color produced is directly proportional to the number of viable cells.
(§2) 3-(4,5-Dimethylthiazol-2-yl)-2,5-diphenyltetrazolium Bromide (MTT) dye (Aesar, cat no. L11939) was prepared at 5 mg/ml in PBS. To each well, 20 μl of MTT solution was added to existing media and mixed thoroughly with 5 mins of gentle shaking at room temperature. Plates were incubated at 37° C., 5% CO2 for approximately 2 hrs. After 2-3 hrs incubation, media was aspirated out and plates were patted dry. […] Plates were incubated at 37° C., 5% CO2 for 10 min and mix thoroughly with 5 mins of gentle shaking at room temperature. Plates were read on the PolarStar plate reader at 560 nm. Percent (%) inhibition was calculated as 100%−(OD560 nm experimental-blank)×100%/OD560 nm control-blank. Blank=wells+serum free media+0.5% DMSO. Experimental=wells+cells+treatment+0.5% DMSO. Control=wells+cells+0.5% DMSO. IC50 values were calculated in GraphPad Prism using non-linear regression curve fitting. All statistical analyses was done either in GraphPad Prism or Microsoft Excel.
Briefly, compounds are added to cells plated in 96-well plates. The cells are allowed to grow for 72 hours before MTT treatment. The effect of the compounds on cell proliferation is analyzed using GraphPad Prism.

[1] = Stability on incubation with human liver microsomes (HLM); assay type: in vitro ADME; conditions: percentage left after incubation with human liver microsomes for 30 minutes
Method: (§3) Stability of hydroxyquinoline analogs were determined (see e.g., TABLE 18). MLM represents the percentage left after incubation with mouse liver microsomes for 30 minutes. HLM represents the percentage left after incubation with human liver microsomes for 30 minutes.
(§4) Stability of analogs having a benzaldehyde derived ring were determined (see e.g., TABLE 18). MLM represents the percentage left after incubation with mouse liver microsomes for 30 minutes. HLM represents the percentage left after incubation with human liver microsomes for 30 minutes.

HT-29 cells = experiment: HT-29 Cell Proliferation Assay (MTT); assay type: cell-based; conditions: read-out: IC50 Value (μM) HT-29 Cells
Method: as §1, §2
Briefly, compounds are added to cells plated in 96-well plates. […] The effect of the compounds on cell proliferation is analyzed using GraphPad Prism.
HT-29 cells are a colon cancer cell line that is utilized to assess the ability of compounds to inhibit the proliferation of cells in tumors of the colon.
For the HT-29 cell proliferation assay, on day 1, HT-29 cells are seeded at 3,000 cells/well in 100 μl media containing 10% FBS, 1× Pen-Strep, and 1× L-Glutamine in 96 well, tissue culture-treated plates. […] Working solutions of compounds were prepared (at […] in 100% DMSO). To 200 μl media, 20 μl of a 5× compound (diluted in plain media) was added for a final DMSO concentration of 0.5%. […] On day 5, plates were analyzed for cell growth using the MTT assay.

[2] = Stability on incubation with mouse liver microsomes (MLM); assay type: in vitro ADME; conditions: for stability toward liver microsome incubation: mouse and human liver microsomes (MLM, HLM); for MLM % Remaining@ 30 Min: percentage left after incubation with mouse liver microsomes for 30 minutes
Method: as §3, §4

A549 cells = experiment: A549 Cell Proliferation Assay (MTT); assay type: cell-based
Method: Cell proliferation is determined using the MTT assay. The MTT cell proliferation assay is a colorimetric assay system which measures the reduction of a tetrazolium component (MTT) into an insoluble formazan product by the mitochondria of viable cells. After incubation of the cells with the MTT reagent, DMSO is added to solubilize the colored crystals and the samples read at a wavelength of 560 nm. The amount of color produced is directly proportional to the number of viable cells. […] L11939) was prepared at 5 mg/ml in PBS. […] Plates were read on the PolarStar plate reader at 560 nm. […] IC50 values were calculated in GraphPad Prism using non-linear regression curve fitting. All statistical analyses was done either in GraphPad Prism or Microsoft Excel. […] Briefly, compounds are added to cells plated in 96-well plates. The cells are allowed to grow for 72 hours before MTT treatment. The effect of the compounds on cell proliferation is analyzed using GraphPad Prism. A549 cells are a non-small cell lung cancer cell line that have wild type EGFR and p53 but have point mutations in KRAS gene which transform it into an oncogene. […] SH30071.03, lot no. ATB31500), 1% Pen Strep (Gibco, cat no. […] On day 2, working solutions of compounds at 200× were prepared. […] Plates were incubated for 72 hours before analyzing them with MTT (as described above).

[3] = tested on: DNA fragmentation in A549 cells; experiment: DNA Fragmentation Assay (Cell Death Detection ELISA); assay type: cell-based; conditions: for induction of apoptosis in A549 cells (DNA fragmentation assay): 10 μM, FIG. 15; for activation at 1 µM / activation at 10 µM / Emax at 1 µM / Emax at 10 µM: Homo sapiens; for activation at 1 µM / activation at 10 µM: A549, 24 h, read-out: % Increase over Background; for Emax at 1 µM / Emax at 10 µM: A549, read-out: % Increase Relative to Staurosporin
[4] = Homo sapiens, A549, 72 h, read-out: IC50 Value (μM) A549 Cells
[5] = Homo sapiens, A549, read-out: IC50, cell proliferation in A549 or H1975 cells

Structure (SMILES)	IC50 (H1975 cells; Homo sapiens, NCI-H1975, 72 h) [µM]	HLM % Remaining@ 30 Min [1] [%]	IC50 (HT-29 cells; Homo sapiens, HT-29, 72 h) [µM]	MLM % Remaining@ 30 Min [2] [%]	IC50 (A549 cells; [4]) [µM]	also measured
Cc1cc(Cl)cnc1NC(c1ccc(C(F)(F)F)cc1F)c1ccc2cccnc2c1O (centres unmarked) [AD4-13042]	0.13	101	1.3	99	0.11	stability toward liver microsome incubation [2]: increased stability
Oc1c(C(Nc2ncc(Cl)cc2F)c2ccc(Cl)cc2Cl)ccc2cccnc12 (centres unmarked) [AD4-13143]	0.13	96	1.1	76	0.13	
Oc1c(C(Nc2ncc(C(F)(F)F)cc2F)c2ccc(Cl)cc2Cl)ccc2cccnc12 (centres unmarked) [AD4-13165]	0.14	100	5	100	0.16	induction of apoptosis in A549 cells (DNA fragmentation assay) [3]: induce apoptosis; stability toward liver microsome incubation [2]: increased stability; also recorded: good stability
Oc1c(C(Nc2ccc(Cl)cn2)c2cccc(Cl)c2Cl)ccc2cccnc12 (centres unmarked) [AD4-13086]	0.15	72	1.2	37	0.16	
Oc1c(C(Nc2ccc(Cl)cn2)c2cc(Cl)ccc2Cl)ccc2cccnc12 (centres unmarked) [AD4-13095]	0.44	88	5.4	60	0.11	
Oc1c(C(Nc2cc(Cl)c(Cl)cn2)c2cccc(Cl)c2Cl)ccc2cccnc12 (centres unmarked) [AD4-13172]	0.15	100	1.3	80	0.14	
CCc1cc(Cl)cnc1NC(c1ccc(Cl)cc1)c1ccc2cccnc2c1O (centres unmarked) [AD4-13225]						activation at 1 µM [3]: 702%; activation at 10 µM [3]: 697%; Emax at 1 µM [3]: 52%; Emax at 10 µM [3]: 52%
Oc1c(C(Nc2cc(Cl)c(Cl)cn2)c2ccc(Cl)c(Cl)c2)ccc2cccnc12 (centres unmarked) [AD4-13177]	0.27	86	1.5	86	0.14	
Cc1cc(NC(c2cccc(Cl)c2Cl)c2ccc3cccnc3c2O)ncc1Cl (centres unmarked) [AD4-13153]	0.19	96	0.79	62	0.19	
Oc1c(C(Nc2ncc(F)cc2F)c2cc(Cl)cc(Cl)c2)ccc2cccnc12 (centres unmarked) [AD4-13176]						induction of apoptosis in A549 cells (DNA fragmentation assay) [3]: induce apoptosis
Oc1c(C(Nc2ccc(C(F)(F)F)cn2)c2cccc(C(F)(F)F)c2)ccc2cccnc12 (centres unmarked) [AD4-13164]						activation at 1 µM [3]: 525%; activation at 10 µM [3]: 788%; Emax at 1 µM [3]: 39%; Emax at 10 µM [3]: 58%
Oc1c(C(Nc2ccc(F)cn2)c2cc(Cl)cc(Cl)c2Cl)ccc2cccnc12 (centres unmarked) [AD4-13111]	0.37	92		87	0.14	IC50 (HT-29 cells): 8.9 µM
Cc1cc(NC(c2ccc(Cl)c(C(F)(F)F)c2)c2ccc3cccnc3c2O)ncc1Cl (centres unmarked) [AD4-13108]	0.3	93	3.3	25	0.14	
Oc1c(C(Nc2ccc(F)cn2)c2cc(Cl)cc(Cl)c2Cl)ccc2cccnc12 (centres unmarked) [AD4-13132]		98		66		IC50 (H1975 cells): 0.31 µM; IC50 (HT-29 cells): 1.6 µM; IC50 (A549 cells; read-out: IC50 Value (μM) A549 Cells): 0.17 µM
Oc1c(C(Nc2cc(Cl)c(Cl)cn2)c2cc(Cl)ccc2Cl)ccc2cccnc12 (centres unmarked) [AD4-13179]	0.14		4.1		0.14	induction of apoptosis in A549 cells (DNA fragmentation assay) [3]: induce apoptosis
Cc1cc(Cl)cnc1NC(c1cc(Cl)ccc1Cl)c1ccc2cccnc2c1O (centres unmarked) [AD4-13137]	0.12		0.78		0.16	activation at 1 µM [3]: 182%; activation at 10 µM [3]: 628%; Emax at 1 µM [3]: 18%; Emax at 10 µM [3]: 55%
Oc1c(C(Nc2cc(Cl)c(Cl)cn2)c2ccc(Cl)cc2Cl)ccc2cccnc12 (centres unmarked) [AD4-13178]	0.19	100	0.79	83	0.084	apoptotic activity ([3]; Caspase, DNA Fragmentation, Annexin-V): increased apoptotic activity; IC50 (A549 cells; [5]): ≤ 0.1 µM
Oc1c(C(Nc2ncc(Cl)cc2F)c2ccc(Cl)c(Cl)c2)ccc2cccnc12 (centres unmarked) [AD4-13150]	0.45	100	1.9	85	0.14	
Cc1nc(NC(c2ccc(Cl)cc2Cl)c2ccc3cccnc3c2O)c(Cl)cc1Cl (centres unmarked) [AD4-13206]	0.36	99	2.1	93	0.074	stability toward liver microsome incubation [2]: increased stability; also recorded: good stability; IC50 (A549 cells; [5]): ≤ 0.1 µM
Cc1cc(Cl)cnc1NC(c1ccc(Cl)cc1)c1ccc2cccnc2c1O (centres unmarked) [AD4-13154]	0.15		0.76		0.17	
Cc1cc(Cl)cnc1NC(c1ccc(Cl)cc1Cl)c1cc(Cl)c2cccnc2c1O (centres unmarked) [AD4-13212]			3.5		0.13	IC50 (H1975 cells; Homo sapiens, NCI-H1975, MTT, 72 hours): 0.16 µM
Cc1cc(NC(c2ccc(C(F)(F)F)cc2C(F)(F)F)c2ccc3cccnc3c2O)ncc1Cl (centres unmarked) [AD4-13124]	0.97		1.5		0.1	IC50 (A549 cells; [5]): ≤ 0.1 µM
Cc1cc(Cl)cnc1NC(c1cc(Cl)cc(Cl)c1)c1ccc2cccnc2c1O (centres unmarked) [AD4-13131]	0.1	100	0.92	83	0.1	IC50 (A549 cells; [5]): ≤ 0.1 µM
Cc1ccnc(NC(c2ccc3cccnc3c2O)c2c(F)c(F)c(OCC(F)(F)F)c(F)c2F)c1 (centres unmarked) [AD4-13092]	0.21		3.9		0.16	
Oc1c(C(Nc2ncc(F)cc2F)c2ccc(Cl)c(Cl)c2)ccc2cccnc12 (centres unmarked) [AD4-13182]	1.8		8.3		0.19	
Cc1cc(Cl)cnc1NC(c1ccc(C(F)(F)F)cc1)c1ccc2cccnc2c1O (centres unmarked) [AD4-13041]	0.17	100	1.1	81	0.11	stability toward liver microsome incubation [2]: increased stability
